Among the test systems are M14 melanoma; SF-539 CNS; T-47D breast; HCC-2998 colon; SW-620 colon; NCI/ADR-RES ovarian; MDA-MB-231 breast; HOP-92 NSCLC; SF-295 CNS; RPMI-8226 leukemia.
Assay in all cases: NCI anticancer screen, dose series, 48 h

For 9 compounds, TGI and GI50 results are on record in PubChem BioAssay (NCI).

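Briefly, cells in 96-well plates were exposed to five compound concentrations for 48 h, and endpoints were estimated by linear interpolation. GI50: concentration for 50% inhibition of growth. TGI is the concentration that stops growth completely.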 Residues, ends and D or L forms follow the SMILES beside them. *: point of attachment. Cbz = O=C(OCc1ccccc1)*

Turning to `O=[N+]([O-])c1oc2ccc3ccccc3c2c1CCO`, the TGI with M14 melanoma worked out at 5.24 µM; in the assay on SF-539 CNS, 13.4 µM; in the assay with T-47D breast, 73.3 µM; with HCC-2998 colon, 1.24 µM; in the assay with SW-620 colon it was 40.2 µM; in the assay on NCI/ADR-RES ovarian, 30.1 µM. Moreover, the TGI with MDA-MB-231 breast was determined as 59.3 µM; with HOP-92 NSCLC, 35 µM; in the assay with SF-295 CNS, 7.04 µM; in the assay with RPMI-8226 leukemia, 22.2 µM.

For `Cc1ccc(OCCOCCOCCOCCOCCOc2ccc(C)n(O)c2=S)c(=S)n1O`, the GI50 in the assay on M14 melanoma is 0.0619 µM; in the assay on SF-539 CNS, 0.0606 µM; with T-47D breast, 0.0402 µM; in the assay on HCC-2998 colon, 0.444 µM; in the assay with SW-620 colon, 0.0544 µM; in the assay on NCI/ADR-RES ovarian it was 0.0478 µM. Moreover, the GI50 in the assay with MDA-MB-231 breast was 0.062 µM; in the assay with HOP-92 NSCLC, 3.06 µM; in the assay with SF-295 CNS, 0.0378 µM; in the assay with RPMI-8226 leukemia it was 0.0713 µM. Moreover, the TGI is 0.43 µM in the assay with M14 melanoma; 15.1 µM in the assay with SF-539 CNS; more than 100 µM with T-47D breast; 46.9 µM in the assay with HCC-2998 colon; more than 100 µM with SW-620 colon; more than 77 µM in the assay on NCI/ADR-RES ovarian. Further, the TGI with MDA-MB-231 breast is more than 100 µM; in the assay with HOP-92 NSCLC, 54.5 µM; with SF-295 CNS, more than 43.6 µM; with RPMI-8226 leukemia, more than 100 µM.

Turning to `O=C(O)Cc1ccc(N=Nc2c(O)c(C(=O)O)cc3ccccc23)cc1`, the TGI with M14 melanoma, in the assay on SF-539 CNS, in the assay with T-47D breast, with HCC-2998 colon, in the assay with SW-620 colon and in the assay with NCI/ADR-RES ovarian was more than 100 µM each time. In addition, the TGI with MDA-MB-231 breast, with HOP-92 NSCLC, in the assay on SF-295 CNS and with RPMI-8226 leukemia was more than 100 µM throughout.

With `O=S(=O)(NCCCNc1cc(-c2cn(-c3ccccc3)nc2-c2cccc(O)c2)ccn1)c1ccc(Br)cc1`, the GI50 in the assay on M14 melanoma was 1.78 µM; in the assay on SF-539 CNS it was 1.69 µM; in the assay with T-47D breast, 1.76 µM; with HCC-2998 colon, 2 µM; in the assay with SW-620 colon, 1.62 µM; in the assay with NCI/ADR-RES ovarian it was 2.33 µM. Also, the GI50 is 1.6 µM with MDA-MB-231 breast, 1.83 µM in the assay with HOP-92 NSCLC, 1.36 µM in the assay on SF-295 CNS and 1.45 µM with RPMI-8226 leukemia. Further, the TGI with M14 melanoma came to 3.78 µM; with SF-539 CNS, 4.01 µM; with T-47D breast, 6.38 µM; in the assay with HCC-2998 colon, 3.78 µM; with SW-620 colon, 3.65 µM; in the assay with NCI/ADR-RES ovarian it was 8.19 µM. Moreover, the TGI stood at 4.25 µM in the assay on MDA-MB-231 breast, 7.55 µM in the assay on HOP-92 NSCLC, 3.09 µM with SF-295 CNS and 4.68 µM with RPMI-8226 leukemia.

Turning to `CC1(C)CCC(C)(C)c2cc(NC(=O)c3ccc(C(=O)O)cc3)ccc21`, the TGI in the assay on M14 melanoma is more than 65.1 µM; in the assay with SF-539 CNS, more than 51 µM; in the assay with T-47D breast, more than 100 µM; in the assay on HCC-2998 colon, more than 60 µM; in the assay with SW-620 colon it was more than 100 µM; in the assay with NCI/ADR-RES ovarian, more than 86.1 µM. The TGI was more than 90.5 µM in the assay on MDA-MB-231 breast, 64.1 µM with HOP-92 NSCLC, 68.2 µM in the assay on SF-295 CNS and more than 100 µM with RPMI-8226 leukemia.

For `COC(=O)c1oc2c(C(=O)/C=C/c3ccc(OC)cc3)c(OCCN3CCOCC3)ccc2c1C`, the GI50 is 3.11 µM in the assay with M14 melanoma; 1.64 µM with SF-539 CNS; 1.51 µM in the assay on T-47D breast; 1.64 µM with HCC-2998 colon; 1.88 µM with SW-620 colon; 2.48 µM in the assay on NCI/ADR-RES ovarian. The GI50 with MDA-MB-231 breast is 1.64 µM; in the assay with HOP-92 NSCLC it was 1.54 µM; with SF-295 CNS it was 1.85 µM; with RPMI-8226 leukemia it was 1.57 µM. Also, the TGI in the assay on M14 melanoma is 12.1 µM; in the assay on SF-539 CNS it was 4.1 µM; with T-47D breast, 6.83 µM; in the assay on HCC-2998 colon, 3.17 µM; with SW-620 colon, 4.43 µM; with NCI/ADR-RES ovarian it was more than 24 µM. For the same compound, the TGI amounted to 5.18 µM with MDA-MB-231 breast, 5.48 µM in the assay with HOP-92 NSCLC, 5.2 µM with SF-295 CNS and 4.2 µM in the assay with RPMI-8226 leukemia.

As for `CC(C)C[C@@H](C=O)NC(=O)[C@H](CC(C)C)NC(=O)[C@H](CC(C)C)NC(=O)OCc1ccccc1` (Cbz-Leu-Leu-Leu-aldehyde), the GI50 with M14 melanoma was 0.338 µM; in the assay on SF-539 CNS it was 0.256 µM; with T-47D breast, 0.222 µM; with HCC-2998 colon it was 0.24 µM; in the assay on SW-620 colon, 0.355 µM; with NCI/ADR-RES ovarian, 3.26 µM. In addition, the GI50 was 0.328 µM with MDA-MB-231 breast, 0.319 µM with HOP-92 NSCLC, 0.39 µM in the assay on SF-295 CNS and 0.356 µM in the assay with RPMI-8226 leukemia. The TGI with M14 melanoma is 1.74 µM; with SF-539 CNS it was 0.703 µM; in the assay with T-47D breast, 0.598 µM; in the assay with HCC-2998 colon it was 0.631 µM; with SW-620 colon, 2.07 µM; with NCI/ADR-RES ovarian, more than 100 µM. Besides, the TGI with MDA-MB-231 breast was determined as 1.21 µM; in the assay on HOP-92 NSCLC it was 0.797 µM; in the assay with SF-295 CNS it was 1.77 µM; in the assay with RPMI-8226 leukemia it was 13.8 µM.

Take `Oc1ccccc1/C=N\NC(=S)N/N=C/c1ccccc1O`: the GI50 was 1.63 µM with M14 melanoma; 3.26 µM with SF-539 CNS; 3.19 µM in the assay on T-47D breast; 3.62 µM with HCC-2998 colon; 3.54 µM with SW-620 colon; 0.543 µM with NCI/ADR-RES ovarian. Further, the GI50 with MDA-MB-231 breast was 3.05 µM; in the assay on HOP-92 NSCLC, 10.3 µM; with SF-295 CNS, 0.249 µM; with RPMI-8226 leukemia, 2.77 µM. Moreover, the TGI was 6.33 µM with M14 melanoma; 34.3 µM with SF-539 CNS; 54.5 µM with T-47D breast; more than 100 µM in the assay with HCC-2998 colon; more than 100 µM with SW-620 colon; more than 100 µM with NCI/ADR-RES ovarian. For the same compound, the TGI is more than 100 µM with MDA-MB-231 breast, 64.5 µM in the assay on HOP-92 NSCLC, 0.987 µM with SF-295 CNS and 34.2 µM in the assay with RPMI-8226 leukemia.

In the case of `COc1ccc(NC(=O)c2ccc(NC3=C(Cl)C(=O)N(Cc4ccccc4)C3=O)cc2)c(OC)c1`, the GI50 in the assay on M14 melanoma is 18.5 µM; in the assay with SF-539 CNS it was 28.2 µM; in the assay on T-47D breast it was 38.9 µM; with HCC-2998 colon, 10.1 µM; in the assay with SW-620 colon it was 29.2 µM; in the assay on NCI/ADR-RES ovarian, 17.8 µM. For the same compound, the GI50 in the assay with MDA-MB-231 breast was more than 100 µM; in the assay with HOP-92 NSCLC, 6.27 µM; with SF-295 CNS, 25.7 µM; with RPMI-8226 leukemia it was 4.85 µM. Besides, the TGI is 48 µM in the assay on M14 melanoma; 67.1 µM with SF-539 CNS; more than 100 µM in the assay on T-47D breast; 21.7 µM with HCC-2998 colon; more than 100 µM in the assay on SW-620 colon; 47.3 µM in the assay on NCI/ADR-RES ovarian. For the same compound, the TGI in the assay on MDA-MB-231 breast was more than 100 µM; in the assay on HOP-92 NSCLC, 47 µM; in the assay with SF-295 CNS it was 99.1 µM; in the assay on RPMI-8226 leukemia it was 22.8 µM.
